According to patent publication US20140088184A1 (priority 2011, published 2014):
Where two headings read alike, the source gives them in different places.

Columns and labels:
HCVcc [1] = experiment: Quantitative binding test: HCVcc attachment to Huh-7 cells, HCV RNA by quantitative RT-PCR; format: cell-based, hepatitis C virus; conditions: 1 hour at 4° C., MOI 10, vs DMSO; for virus attachment to the cell surface: 50 μM
Description: HCVcc. For the quantitative “binding” experiments, the HCVcc virus was mass produced and purified by concentration and separation in a gradient of iodixanol. Supernatants of infected cells were precipitated with 8% PEG 6000 at 4° C. overnight and centrifuged for 25 minutes at 10 000 rpm. The pellets were resuspended in 1 mL, of PBS, loaded on a continuous iodixanol gradient (10-40%), and centrifuged at 36 000 rpm for 16 hours at 4° C. Fractions of 500 μL were collected and the titre of each fraction was determined. The most infectious fractions were combined in order to perform the experiments.
Quantitative “Bindinq” Test. The HCVcc virus was contacted with the Huh-7 cells for 1 hour at 4° C. in the presence of EGCG (50 μM), delphinidin chloride (50 μM) or porcine intestinal heparin (500 ug/mL). After 3 washes with PBS, the total RNAs (viral and cellular) were extracted using the NucleoSpin RNA II kit (Macherey-Nagel, Düren, Germany) and the HCV RNA quantified by quantitative RT-PCR (Castelain et al, J Clin Virol 2004). Heparin was used in parallel as a control.
In order to determine whether the step of attachment to the cell surface was inhibited by EGCG, quantitative “binding” (or attachment) tests have been carried out. The action of delphinidin chloride was tested in parallel. Heparin, a known inhibitor of HCV attachment to the cell surface, was used as a positive control. The cells were incubated with HCVcc purified to a multiplicity of infection of 10 for 1 hour at 4° C. in the presence of DMSO, 50 M of EGCG, 50 μM of delphinidin chloride or 500 μg/mL of heparin. The cells were washed 3 times with cold PBS and the total RNA extracted. The amount of virus fixed was determined by quantifying the viral genomic RNA by means of quantitative RT-PCR.

JFH1-Rluc virus [2] = experiment: microbe, parasite or virus in culture; format: cell-based, hepatitis C virus (isolate JFH1, genotype 2a); conditions: for relative viral infection / inhibition of viral infection: 50 μM during 2 h infection of Huh-7 cells, luciferase 48 h after infection; for relative viral infection: compared with DMSO; for inhibition of viral infection: EGCG from CALBIOCHEM or EXTRASYNTHESE
HCV viral replication = experiment: Viral replication (results not shown); format: cell-based, hepatitis C virus
yellow fever virus (YFV) = format: cell-based; conditions: Huh-7 cells, EGCG 50 μM vs DMSO
JFH1-Rluc virus [3] = experiment: Split-up of HCV entry steps (attachment, receptor interaction, endocytosis/fusion), JFH-Luc in Huh-7 cells; conditions: for step of HCV entry inhibited: entry split up into its three constituent steps, general statement of the description
HCVcc [4] = experiment: microbe, parasite or virus in culture; format: cell-based
HCV JFH1 = experiment: Successive infections with supernatants of infected cells (passages P0 to P4); conditions: 50 μM EGCG, passages P0 to P4, 48 h each
[5] = system: VSVpp (virus like particles expressing the envelope protein of VSV); format: cell-based, vesicular stomatitis virus
[6] = system: bovine viral diarrhoea virus (BVDV); format: cell-based; conditions: MDBK cells, EGCG 50 μM vs DMSO
JFH1 virus = experiment: Cell to cell transmission of HCVcc (JFH1) in Huh-7 cells under agarose; format: cell-based, hepatitis C virus; conditions: EGCG 50 μM in 1% agarose medium, 72 h post-infection; control sites average 45
Description: The Huh-7 cells cultured in 24 well plates are infected with HCVcc over a period of 2 hours. The inoculum was eliminated and replaced by DMEM medium supplemented with GLUTAMAX®-1,10% of FCS and 1% low melting point agarose gel (SeaPlaque® Agarose marketed by LONZA®) containing EGCG (50 μM) or an equivalent volume of Dimethyl Sulfoxide (DMSO) as a control. The cells are incubated at 37° C. over a period of 3 days at the end of which the agarose is eliminated and the infection sites are detected using indirect immunofluorescence for HCV E1 protein as previously described.
A second mode of viral infection is the transmission of the virus from cell to cell. […] The agarose prevents infection of cells by the virus secreted into the medium and thus makes it possible to observe the cell to cell transmission of the virus by virtue of the cells being in contact amongst themselves.
At seventy-two hours post-infection, the cells were fixed and infection was detected by immunofluorescence after labelling with an anti-E1 antibody. A step of detection is then carried out with a Cy3 coupled secondary antibody. The nuclei are stained with DAPI staining. The number of cells per infection site was quantified (FIG. 5). In the presence of EGCG the infection sites are much smaller. They contain an average of 3-4 infected cells showing that the virus has not propagated after infecting a cell. […]

Sindbis virus (SINV) = format: cell-based; conditions: Huh-7 cells, EGCG 50 μM vs DMSO
[7] = system: HCVpp expressing envelope proteins E1 and E2 of the HCV virus of genotypes 1a, 1b, 2a, 2b, 3, 4, 5, 6; format: cell-based, hepatitis C virus; conditions: for relative infection: vs DMSO
[8] = genotypes 1a, 1b, 2a, 2b, 3, 4, 5 and 6, general statement of the description, no concentration

Molecule: heparin [reference compound]
- attachment of the virus to the surface of cells (HCVcc [1]; 500 μg/mL, positive control): greatly reduced

Molecule: Oc1cc(O)c2c(c1)O[C@H](c1ccc(O)c(O)c1)[C@H](O)C2 [(−)-epicatechin, reference compound]
- relative viral infection (JFH1-Rluc virus [2]): identical to that observed for DMSO

Molecule: O=C(O[C@@H]1Cc2c(O)cc(O)cc2O[C@@H]1c1cc(O)c(O)c(O)c1)c1cc(O)c(O)c(O)c1 [EGCG, (2R,3R)-5,7-dihydroxy-2-(3,4,5-trihydroxyphenyl)-3,4-dihydro-2H-chromen-3-yl 3,4,5-trihydroxybenzoate]
- viral replication (HCV viral replication): not affected
- effect on cell infection (yellow fever virus (YFV)): does not have an inhibitory effect
- infection (luciferase activity) (JFH1-Rluc virus [3]; 50 μM EGCG during all three steps of viral entry (Sample 5)): significant reduction of infection
- infection (luciferase activity) (JFH1-Rluc virus [3]; 50 μM EGCG during the step of attachment, 1 h at 4° C. (Sample 2)): significant reduction of infection
- infection (luciferase activity) (JFH1-Rluc virus [3]; 50 μM EGCG during the step of endocytosis or fusion, 1 h at 37° C. (Sample 4)): does not seem to have any effect
- infection (luciferase activity) (JFH1-Rluc virus [3]; 50 μM EGCG during the step of interaction with host cell receptors (Sample 3)): does not seem to have any effect
- step of HCV entry inhibited (JFH1-Rluc virus [3]): only the step of attachment is inhibited
- decrease of viral infection (factor) (JFH1-Rluc virus [2]; 50 μM EGCG during 2 h infection of Huh-7 cells): greater than 10
- inhibition of viral infection (JFH1-Rluc virus [2]): greater than 95%
- IC50 (JFH1-Rluc virus [2]; Hepatitis C virus, Huh-7, read-out: IC50 (viral infection)): 5 µM
- effect on viral entry (JFH1-Rluc virus [2]; non infected cells treated with the molecule before or after infection): no effect
- inhibitory effect with pretreated virus (JFH1-Rluc virus [2]; virus incubated 45 minutes with 50 μM EGCG before infection): increase in the inhibitory effect
- IC50 (HCVcc [4]; Hepatitis C virus, Huh-7; read-out: IC50 (concentration inhibiting 50% infection)): ~11 µM
- percentage of cells infected in each passage of supernatant (HCV JFH1): elimination of HCV from the culture supernatant from the third passage onwards and the complete elimination in the fourth passage
- effect on infection by the VSVpp [5]: no effect
- relative infection rate [5]: 85%
- effect on cell infection [6]: does not have an inhibitory effect
- number of cells per infection site (average) (JFH1 virus): 3-4 infected cells
- effect on cell infection (Sindbis virus (SINV)): does not have an inhibitory effect
- virus attachment to the cell surface (HCVcc [1]): strong decrease
- effect on the infection by HCVpp of all genotypes tested ([7]; EGCG 50 μM): inhibitory effect
- relative infection ([7]; HCVpp genotype 1b, EGCG 50 μM): substantially nil
- relative infection ([7]; HCVpp genotype 2a, EGCG 50 μM): substantially nil
- relative infection ([7]; HCVpp genotype 2b, EGCG 50 μM): substantially nil
- relative infection ([7]; HCVpp genotype 4, EGCG 50 μM): substantially nil
- inhibitory effect across viral genotypes of HCV [7, 8]: observed in all the viral genotypes of HCV

Molecule: O=C(O[C@@H]1Cc2c(O)cc(O)cc2O[C@@H]1c1ccc(O)c(O)c1)c1cc(O)c(O)c(O)c1 [ECG, (2R,3R)-2-(3,4-Dihydroxyphenyl)-3,4-dihydro-1(2H)-benzopyran-3,5,7-triol 3-(3,4,5-trihydroxybenzoate)]
- step of HCV entry inhibited (JFH1-Rluc virus [3]): only the step of attachment is inhibited
- inhibition of viral infection (JFH1-Rluc virus [2]): about 40%
- inhibitory effect across viral genotypes of HCV [7, 8]: observed in all the viral genotypes of HCV

Molecule: Oc1cc(O)c2c(c1)O[C@H](c1cc(O)c(O)c(O)c1)[C@H](O)C2 [EGC, (2R,3R)-2-(3,4,5-trihydroxyphenyl) chroman-3,5,7-triol]
- step of HCV entry inhibited (JFH1-Rluc virus [3]): only the step of attachment is inhibited
- inhibition of viral infection (JFH1-Rluc virus [2]): ~80%
- inhibitory effect across viral genotypes of HCV [7, 8]: observed in all the viral genotypes of HCV

Molecule: Oc1cc(O)c2c(c1)O[C@H](c1ccc(O)c(O)c1)[C@@H](O)C2 [(+)-catechin, reference compound]
- relative viral infection (JFH1-Rluc virus [2]): identical to that observed for DMSO

Molecule: Oc1cc(O)c2cc(O)c(-c3cc(O)c(O)c(O)c3)[o+]c2c1 [delphinidin chloride, 3,3′,4′,5,5′,7-Hexahydroxyflavylium chloride]
- step of HCV entry inhibited (JFH1-Rluc virus [3]): only the step of attachment is inhibited
- IC50 (HCVcc [4]; Hepatitis C virus, Huh-7, read-out: IC50 (concentration inhibiting 50% infection)): ~3.5 µM
- virus attachment to the cell surface (HCVcc [1]): strong decrease
- inhibitory effect across viral genotypes of HCV [7]: observed in all the viral genotypes of HCV
